# According to patent publication US9695155B2, “Herbicidal substituted pyrimidinyloxy benzene compounds” (E. I. DU PONT DE NEMOURS AND COMPANY, priority 2013, dated 2017):
# Columns and labels:
# galium = assay: Test C postemergence; assay type: in vivo, Galium aparine; settings: Galium, post-emergence
# In short: (§1)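 Sown in loam/sand → sprayed pre-emergence; or grown to 1–4 leaves in peat mix → sprayed post-emergence. Same solvent/surfactant formulation both ways. Greenhouse 13–15 d. Score 0–100 visual.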
# pigweed [1] = assay: Test A preemergence; assay type: in vivo, Amaranthus retroflexus; settings: Amaranthus retroflexus, pre-emergence
# In short: (§2)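 Scoring: eye-based comparison with untreated controls, 0 for no effect through 100 for complete control, at about day 10. Treatments: directed soil spray preemergence; foliar spray postemergence on 2–10 cm plants at the one- to two-leaf stage. Medium: loam soil with sand.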
# giant foxtail = assay: Test A preemergence; assay type: in vivo, Setaria faberii; settings: Setaria faberi, pre-emergence, 240 h
# In short: as §2
# wild oat = assay: Test C postemergence; assay type: in vivo, Avena fatua; settings: Avena fatua, post-emergence
# In short: as §1
# barnyardgrass [2] = assay: Test A preemergence; assay type: in vivo, Echinochloa crus-galli; settings: Echinochloa crus-galli, pre-emergence, 240 h
# In short: as §2
# waterhemp = assay: Test C postemergence; assay type: in vivo, Amaranthus rudis; settings: Amaranthus tuberculatus, post-emergence
# In short: as §1
# wheat = assay: Test A preemergence; assay type: in vivo, Triticum aestivum
# In short: as §2
# pigweed [3] = assay: Test A postemergence; assay type: in vivo, Amaranthus retroflexus; settings: Amaranthus retroflexus, post-emergence
# In short: as §2
# blackgrass = assay: Test C postemergence; assay type: in vivo, Alopecurus myosuroides; settings: Alopecurus myosuroides, post-emergence
# In short: as §1
# lambsquarters = assay: Test C postemergence; assay type: in vivo, Chenopodium album; settings: Chenopodium album, post-emergence
# In short: as §1
# velvetleaf = assay: Test A postemergence; assay type: in vivo, Abutilon theophrasti; settings: Abutilon theophrasti, post-emergence, 240 h
# In short: as §2
# johnsongrass = assay: Test C postemergence; assay type: in vivo, Sorghum halepense; settings: Sorghum halepense, post-emergence
# In short: as §1
# large (Lg) crabgrass = assay: Test C postemergence; assay type: in vivo, Digitaria sanguinalis; settings: Digitaria sanguinalis, post-emergence
# In short: as §1
# oilseed rape = assay: Test C postemergence; assay type: in vivo, Brassica napus; settings: Brassica napus, post-emergence
# In short: as §1
# barnyardgrass [4] = assay: Test C postemergence; assay type: in vivo, Echinochloa crus-galli; settings: Echinochloa crus-galli, post-emergence
# In short: as §1
# [5] = 125 g ai/ha, 0 to 100 scale where 0 is no effect and 100 is complete control, read-out: Plant response rating, Pigweed
smiles,measurement,setting,value
"N#Cc1cccc(Oc2ncc(Cl)cn2)c1-n1cc(Br)cn1 [Compound 52, 2-(4-bromo-1H-pyrazol-1-yl)-3-[(5-chloro-2-pyrimidinyl)oxy]benzonitrile]",pest or weed control at 125 g/ha,"galium; 125 g ai/ha, postemergence, read-out: Plant response rating (0 to 100), Galium",85%
same,pest or weed control at 250 g/ha,"galium; 250 g ai/ha, postemergence, read-out: Plant response rating (0 to 100), Galium",90%
same,pest or weed control at 31 g/ha,"galium; Postemergence, 31 g ai/ha, scale 0 to 100 (0 no effect, 100 complete control), 13 to 15 days, read-out: Plant response rating, Galium",60%
same,pest or weed control at 62 g/ha,"galium; Postemergence, 62 g ai/ha, scale 0 to 100 (0 no effect, 100 complete control), read-out: Plant response rating, Galium",60%
same,pest or weed control at 125 g/ha,pigweed [1]; [5],100%
same,pest or weed control at 500 g/ha,"pigweed [1]; 240 h, 500 g ai/ha, 0 to 100 scale, 0 no effect, 100 complete control, approx. 10 days, read-out: Pigweed plant response rating",100%
same,pest or weed control at 125 g/ha,"giant foxtail; 125 g ai/ha, 0 to 100 scale where 0 is no effect and 100 is complete control, read-out: Plant response rating, Foxtail, Giant",100%
same,pest or weed control at 500 g/ha,"giant foxtail; 500 g ai/ha, 0 to 100 scale, 0 no effect, 100 complete control, approx. 10 days, read-out: Foxtail, Giant plant response rating",100%
same,pest or weed control at 125 g/ha,"wild oat; 125 g ai/ha, postemergence, read-out: Plant response rating (0 to 100), Oat, Wild",10%
same,pest or weed control at 250 g/ha,"wild oat; 250 g ai/ha, postemergence, read-out: Plant response rating (0 to 100), Oat, Wild",15%
same,pest or weed control at 31 g/ha,"wild oat; Postemergence, 31 g ai/ha, scale 0 to 100 (0 no effect, 100 complete control), 13 to 15 days, read-out: Plant response rating, Oat, Wild",0%
same,pest or weed control at 62 g/ha,"wild oat; Postemergence, 62 g ai/ha, scale 0 to 100 (0 no effect, 100 complete control), read-out: Plant response rating, Oat, Wild",5%
same,pest or weed control at 125 g/ha,"barnyardgrass [2]; 125 g ai/ha, 0 to 100 scale where 0 is no effect and 100 is complete control, read-out: Plant response rating, Barnyardgrass",90%
same,pest or weed control at 500 g/ha,"barnyardgrass [2]; 500 g ai/ha, 0 to 100 scale, 0 no effect, 100 complete control, approx. 10 days, read-out: Barnyardgrass plant response rating",100%
same,pest or weed control at 125 g/ha,"waterhemp; 125 g ai/ha, postemergence, read-out: Plant response rating (0 to 100), Waterhemp",75%
same,pest or weed control at 250 g/ha,"waterhemp; 250 g ai/ha, postemergence, read-out: Plant response rating (0 to 100), Waterhemp",95%
same,pest or weed control at 31 g/ha,"waterhemp; Postemergence, 31 g ai/ha, scale 0 to 100 (0 no effect, 100 complete control), 13 to 15 days, read-out: Plant response rating, Waterhemp",70%
same,pest or weed control at 62 g/ha,"waterhemp; Postemergence, 62 g ai/ha, scale 0 to 100 (0 no effect, 100 complete control), read-out: Plant response rating, Waterhemp",70%
same,"Plant response rating, Wheat","wheat; 125 g ai/ha, 0 to 100 scale where 0 is no effect and 100 is complete control",20
same,plant injury at 500 g/ha,"wheat; Triticum aestivum, pre-emergence, 240 h, 500 g ai/ha, 0 to 100 scale, 0 no effect, 100 complete control, approx. 10 days, read-out: Wheat plant response rating",80%
same,pest or weed control at 125 g/ha,pigweed [3]; [5],100%
same,pest or weed control at 500 g/ha,"pigweed [3]; 240 h, 500 g ai/ha, 0 to 100 scale, 0 no effect, 100 complete control, read-out: Plant response rating Pigweed",100%
same,pest or weed control at 125 g/ha,"blackgrass; 125 g ai/ha, postemergence, read-out: Plant response rating (0 to 100), Blackgrass",10%
same,pest or weed control at 250 g/ha,"blackgrass; 250 g ai/ha, postemergence, read-out: Plant response rating (0 to 100), Blackgrass",25%
same,pest or weed control at 31 g/ha,"blackgrass; Postemergence, 31 g ai/ha, scale 0 to 100 (0 no effect, 100 complete control), 13 to 15 days, read-out: Plant response rating, Blackgrass",5%
same,pest or weed control at 62 g/ha,"blackgrass; Postemergence, 62 g ai/ha, scale 0 to 100 (0 no effect, 100 complete control), read-out: Plant response rating, Blackgrass",5%
same,pest or weed control at 125 g/ha,"lambsquarters; 125 g ai/ha, postemergence, read-out: Plant response rating (0 to 100), Lambsquarters",90%
same,pest or weed control at 250 g/ha,"lambsquarters; 250 g ai/ha, postemergence, read-out: Plant response rating (0 to 100), Lambsquarters",100%
same,pest or weed control at 31 g/ha,"lambsquarters; Postemergence, 31 g ai/ha, scale 0 to 100 (0 no effect, 100 complete control), 13 to 15 days, read-out: Plant response rating, Lambsquarters",85%
same,pest or weed control at 62 g/ha,"lambsquarters; Postemergence, 62 g ai/ha, scale 0 to 100 (0 no effect, 100 complete control), read-out: Plant response rating, Lambsquarters",90%
same,pest or weed control at 125 g/ha,"velvetleaf; 125 g ai/ha, 0 to 100 scale where 0 is no effect and 100 is complete control, read-out: Plant response rating, Velvetleaf",100%
same,pest or weed control at 500 g/ha,"velvetleaf; 500 g ai/ha, 0 to 100 scale, 0 no effect, 100 complete control, read-out: Plant response rating Velvetleaf",100%
same,pest or weed control at 125 g/ha,"johnsongrass; 125 g ai/ha, postemergence, read-out: Plant response rating (0 to 100), Johnsongrass",5%
same,pest or weed control at 250 g/ha,"johnsongrass; 250 g ai/ha, postemergence, read-out: Plant response rating (0 to 100), Johnsongrass",10%
same,pest or weed control at 31 g/ha,"johnsongrass; Postemergence, 31 g ai/ha, scale 0 to 100 (0 no effect, 100 complete control), 13 to 15 days, read-out: Plant response rating, Johnsongrass",5%
same,pest or weed control at 62 g/ha,"johnsongrass; Postemergence, 62 g ai/ha, scale 0 to 100 (0 no effect, 100 complete control), read-out: Plant response rating, Johnsongrass",5%
same,pest or weed control at 125 g/ha,"large (Lg) crabgrass; 125 g ai/ha, postemergence, read-out: Plant response rating (0 to 100), Crabgrass, Large",20%
same,pest or weed control at 250 g/ha,"large (Lg) crabgrass; 250 g ai/ha, postemergence, read-out: Plant response rating (0 to 100), Crabgrass, Large",40%
same,pest or weed control at 31 g/ha,"large (Lg) crabgrass; Postemergence, 31 g ai/ha, scale 0 to 100 (0 no effect, 100 complete control), 13 to 15 days, read-out: Plant response rating, Crabgrass, Large",5%
same,pest or weed control at 62 g/ha,"large (Lg) crabgrass; Postemergence, 62 g ai/ha, scale 0 to 100 (0 no effect, 100 complete control), read-out: Plant response rating, Crabgrass, Large",15%
same,plant injury at 125 g/ha,"oilseed rape; 125 g ai/ha, postemergence, read-out: Plant response rating (0 to 100), Oilseed Rape",70%
same,plant injury at 250 g/ha,"oilseed rape; 250 g ai/ha, postemergence, read-out: Plant response rating (0 to 100), Oilseed Rape",85%
same,plant injury at 31 g/ha,"oilseed rape; Postemergence, 31 g ai/ha, scale 0 to 100 (0 no effect, 100 complete control), 13 to 15 days, read-out: Plant response rating, Oilseed Rape",25%
same,plant injury at 62 g/ha,"oilseed rape; Postemergence, 62 g ai/ha, scale 0 to 100 (0 no effect, 100 complete control), read-out: Plant response rating, Oilseed Rape",40%
same,pest or weed control at 125 g/ha,"barnyardgrass [4]; 125 g ai/ha, postemergence, read-out: Plant response rating (0 to 100), Barnyardgrass",5%
same,pest or weed control at 250 g/ha,"barnyardgrass [4]; 250 g ai/ha, postemergence, read-out: Plant response rating (0 to 100), Barnyardgrass",10%
same,pest or weed control at 31 g/ha,"barnyardgrass [4]; Postemergence, 31 g ai/ha, scale 0 to 100 (0 no effect, 100 complete control), 13 to 15 days, read-out: Plant response rating, Barnyardgrass",0%
same,pest or weed control at 62 g/ha,"barnyardgrass [4]; Postemergence, 62 g ai/ha, scale 0 to 100 (0 no effect, 100 complete control), read-out: Plant response rating, Barnyardgrass",5%
